Measured values as given in patent US11911450B2, “Method for managing pain” (UNIVERSITY OF MIAMI, priority 2017, dated 2024).

Assays:
[1] = morphine dose vs paw withdrawal latency; assay type: in vivo, mouse; settings: approximately 30 minutes after intraperitoneal dosing; 10, 30, and 60 mg/kg
Protocol: Behavioral tests: Thermal and mechanical sensitivity was measured by Hargreaves test and von Frey filament threshold calculations respectively. See, e.g., Boyce-Rustay et al. Methods Mol Biol. 2010; 617:41-55; Hargreaves et al., Pain. 1988; 32(1):77-88; and Chaplan et al., J Neurosci Methods. 1994; 53(1):55-63. Tests were performed in a quiet room with daylight-like illumination. Animals were habituated to the behavioral room and apparatus for at least 60 minutes for 1 week before a blinded investigator collected data. The thermal sensitivity test was performed using an IITC Plantar Analgesia Meter apparatus (IITC Life sciences, Woodland Hills, CA) with a plastic box placed on a glass plate of constant temperature (30° C.). The mouse plantar surface was exposed to a beam of radiant heat to induced paw withdrawal. Baseline latencies were adjusted to 5-9 sec with a maximum of 20 sec as cutoff to prevent potential injury. The latency time in seconds from the onset of the intense light beam to paw withdrawal was defined as the withdrawal latency of the paw. […] The mouse hind paw was pressed with one of a series of von Frey filaments with logarithmically incrementing stiffness (Stoelting Co, Wood Dale, IL) presented perpendicular to the plantar surface of each hind paw for 1-2 seconds, the 50% threshold was determined using the Up- and Down method.

ITPR1 [2] = target: T1, ITPR1 (Homo sapiens, UniProt Q14643); assay: NGF-induced intracellular calcium release in HEK293 cells; assay type: cell-based; set-up: endogenous in cells; host or cells: HEK293 (ATCC CRL-1573); settings: data not shown
[3] = test system: RYR-dependent calcium release; assay: 5HT-induced RYR-dependent cytoplasmic calcium release in NBL cells (Fura2 imaging); assay type: cell-based, human; settings: for 5HT-induced cytoplasmic calcium release, effect of ryanodine: 50 μM 5HT
Protocol: Pharmacodynamics—Bioassay of Calcium Release: Fifteen mm glass coverslips (cat #72228 Electron Microscopy Sciences, Hatfield, PA) were coated with poly-D-Lysine (Sigma) followed by Laminin and 1×10^5 cells were seeded on each coverslip. Twenty-four hrs later, cells were transfected with AAV2-ITR, AAV2-V5-Car10, or AAV2-V5-CA10 vectors as previously described. In embodiments wherein AAV2 is not employed, other expression vectors (including viral vectors) are used. Fura-2AM (cat #F1221 ThermoFisher scientific, Waltham, MA) was dissolved in DMSO (50 μg in 50 μl) and 1% pluronic acid-127 (cat #P2443 Sigma, St Louis, MO) as the stock solution. Forty eight hrs after seeding, cells were loaded with 2 μM Fura-2AM dye for 45 min at room temperature in the dark in a standard Ca+2 buffer solution containing: 125 mM NaCl, 2 mM MgCl, 4.5 mM KCl, 10 glucose, 20 mM HEPES, 2 mM CaCl2, pH 7.4.25. Following dye loading, coverslips were washed with Ca^+2 buffer solution. For imaging and ATP stimulation experiments, coverslips were placed in a recording chamber (cat #QR-42LP Warner instruments Hamden, CT) on a Leica DMI6000B microscope, and perfused at room temperature (˜22° C.) with Ca^+2 free buffer solution containing: 125 mM NaCl, 4 mM MgCl, 4.5 mM KCl, 10 mM glucose, 20 mM HEPES, pH 7.4. For the ratiometric imaging of Fura-2AM, the excitation light was filtered through an ultra high-speed wavelength switcher to provide wavelengths of 340 and 384 nm and capture by a high-speed digital camera (Leica DFC365FX). Activation of ITPR1 channels was achieved via application of 1 μM ATP (Sigma, St Louis, MO). Data acquisition and processing was made using the LAXS software. Regions of interest over the field of view were selected and the mean pixels intensity at each frame was measured. Data was plotted as ratio fluorescence intensity versus time and subsequently converted to a relative scale.
It was also determined that 5HT-induced RYR-dependent calcium release in NBL cells is inhibited by ryanodine. […]

[4] = test system: ITPR1-mediated cytoplasmic calcium release; assay: ATP-induced cytoplasmic calcium release in HEK293 cells (Fura-2 imaging); assay type: cell-based, human
Protocol: Cell culture and transfections: Human neuronal-derived (e.g., NBL), human non-neuronal derived (e.g., HEK293) cells, or dispersed rodent primary DRG cells can be used. HEK293 cells (cat #CRL-1573 ATCC Manassas, VA) were cultured in Dulbecco's modified Eagle's medium (DMEM-Glutamax cat #0566; Invitrogen) supplemented with 10% fetal bovine serum, FBS (cat #16140 ThermoFisher scientific, Waltham, MA) and 1% penicillin/streptomycin (cat #15140 ThermoFisher scientific, Waltham, MA). Cells were seeded in six-well plates at density of 1.0×10^5 cells per well. […]
Pharmacodynamics—Bioassay of Calcium Release: Fifteen mm glass coverslips (cat #72228 Electron Microscopy Sciences, Hatfield, PA) were coated with poly-D-Lysine (Sigma) followed by Laminin and 1×10^5 cells were seeded on each coverslip. […] Regions of interest over the field of view were selected and the mean pixels intensity at each frame was measured. Data was plotted as ratio fluorescence intensity versus time and subsequently converted to a relative scale.
To further examine whether FLAG-CA8-204 (data not shown), V5-Car10 and V5-CA10 overexpression can inhibit ATP-induced calcium release, HEK293 cells were infected with each if these constructs and real-time intracellular calcium concentrations at baseline and in response to ATP stimulation were measured (FIG. 2). […]

ITPR1 [5] = target: T1, ITPR1; assay: NGF-induced intracellular calcium release / ITPR1 activation in NBL cells; assay type: cell-based; set-up: endogenous in cells; settings: NBL cells

T1 sequence (Q14643 whole entry): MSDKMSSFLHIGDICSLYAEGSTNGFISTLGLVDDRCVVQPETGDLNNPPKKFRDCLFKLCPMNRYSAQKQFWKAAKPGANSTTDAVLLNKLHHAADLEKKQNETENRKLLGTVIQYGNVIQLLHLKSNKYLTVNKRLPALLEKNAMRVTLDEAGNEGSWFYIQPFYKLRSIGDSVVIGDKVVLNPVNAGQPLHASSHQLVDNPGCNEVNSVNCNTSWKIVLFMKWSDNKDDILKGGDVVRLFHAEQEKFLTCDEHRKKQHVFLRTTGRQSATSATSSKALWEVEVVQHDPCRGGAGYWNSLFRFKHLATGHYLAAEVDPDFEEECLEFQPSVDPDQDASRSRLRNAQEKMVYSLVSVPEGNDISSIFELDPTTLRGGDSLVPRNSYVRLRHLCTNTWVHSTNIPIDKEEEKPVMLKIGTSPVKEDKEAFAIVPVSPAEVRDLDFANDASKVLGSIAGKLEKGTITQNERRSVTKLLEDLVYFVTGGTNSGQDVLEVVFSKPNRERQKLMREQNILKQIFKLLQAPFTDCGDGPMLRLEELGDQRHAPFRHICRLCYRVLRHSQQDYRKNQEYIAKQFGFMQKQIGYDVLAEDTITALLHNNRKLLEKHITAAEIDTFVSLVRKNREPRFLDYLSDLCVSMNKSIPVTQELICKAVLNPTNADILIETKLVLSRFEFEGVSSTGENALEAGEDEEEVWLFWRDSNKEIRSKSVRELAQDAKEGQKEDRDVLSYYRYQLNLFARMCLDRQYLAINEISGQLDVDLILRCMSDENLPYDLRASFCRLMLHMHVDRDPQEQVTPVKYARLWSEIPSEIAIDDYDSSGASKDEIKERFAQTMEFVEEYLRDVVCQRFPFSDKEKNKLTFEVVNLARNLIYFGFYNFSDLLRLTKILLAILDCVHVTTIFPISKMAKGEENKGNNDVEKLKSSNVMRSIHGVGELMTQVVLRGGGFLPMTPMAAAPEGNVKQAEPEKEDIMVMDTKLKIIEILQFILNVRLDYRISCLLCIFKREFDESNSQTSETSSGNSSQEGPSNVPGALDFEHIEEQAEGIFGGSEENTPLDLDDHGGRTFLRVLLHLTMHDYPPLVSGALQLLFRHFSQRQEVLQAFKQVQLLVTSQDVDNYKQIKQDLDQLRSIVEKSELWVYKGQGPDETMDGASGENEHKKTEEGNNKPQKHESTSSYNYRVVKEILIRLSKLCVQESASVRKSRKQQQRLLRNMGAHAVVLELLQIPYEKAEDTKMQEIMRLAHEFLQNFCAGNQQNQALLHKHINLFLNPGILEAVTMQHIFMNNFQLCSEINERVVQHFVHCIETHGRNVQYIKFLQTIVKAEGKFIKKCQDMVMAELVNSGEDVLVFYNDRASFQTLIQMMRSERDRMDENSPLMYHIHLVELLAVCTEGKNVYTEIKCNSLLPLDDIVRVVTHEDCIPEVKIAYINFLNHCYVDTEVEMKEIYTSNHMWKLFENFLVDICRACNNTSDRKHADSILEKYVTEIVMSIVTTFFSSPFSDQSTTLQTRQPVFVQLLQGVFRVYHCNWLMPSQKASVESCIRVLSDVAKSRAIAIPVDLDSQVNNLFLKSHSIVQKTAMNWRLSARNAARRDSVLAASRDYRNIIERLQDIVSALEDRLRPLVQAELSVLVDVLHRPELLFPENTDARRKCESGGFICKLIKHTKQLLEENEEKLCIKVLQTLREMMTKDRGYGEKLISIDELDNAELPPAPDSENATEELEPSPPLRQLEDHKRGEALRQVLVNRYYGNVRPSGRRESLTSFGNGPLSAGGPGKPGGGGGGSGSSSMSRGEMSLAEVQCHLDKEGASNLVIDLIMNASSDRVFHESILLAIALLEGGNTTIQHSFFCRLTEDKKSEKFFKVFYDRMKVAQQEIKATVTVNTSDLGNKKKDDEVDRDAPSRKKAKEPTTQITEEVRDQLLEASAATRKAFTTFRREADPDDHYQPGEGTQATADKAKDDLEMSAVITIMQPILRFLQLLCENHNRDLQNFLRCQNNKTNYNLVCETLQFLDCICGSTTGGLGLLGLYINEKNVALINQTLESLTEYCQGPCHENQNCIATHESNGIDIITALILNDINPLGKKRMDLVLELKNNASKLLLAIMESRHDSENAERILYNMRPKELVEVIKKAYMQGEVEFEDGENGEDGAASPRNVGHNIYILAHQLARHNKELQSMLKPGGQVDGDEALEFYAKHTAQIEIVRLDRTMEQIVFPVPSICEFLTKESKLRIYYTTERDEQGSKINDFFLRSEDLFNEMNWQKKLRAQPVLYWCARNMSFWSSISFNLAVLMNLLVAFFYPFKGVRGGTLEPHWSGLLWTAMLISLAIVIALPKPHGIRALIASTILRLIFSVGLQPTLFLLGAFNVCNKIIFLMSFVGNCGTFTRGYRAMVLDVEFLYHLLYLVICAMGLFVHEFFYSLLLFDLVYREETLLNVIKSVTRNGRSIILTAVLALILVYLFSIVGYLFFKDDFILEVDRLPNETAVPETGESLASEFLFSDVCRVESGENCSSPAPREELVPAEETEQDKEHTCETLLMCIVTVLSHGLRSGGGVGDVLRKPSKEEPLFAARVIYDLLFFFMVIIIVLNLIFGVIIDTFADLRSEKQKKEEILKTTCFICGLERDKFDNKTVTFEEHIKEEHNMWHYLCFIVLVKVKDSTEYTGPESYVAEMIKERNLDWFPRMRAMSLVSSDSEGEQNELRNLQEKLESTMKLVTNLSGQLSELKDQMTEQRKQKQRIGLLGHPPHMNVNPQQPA

CN1CC[C@]23c4c5ccc(O)c4O[C@H]2[C@@H](O)C=C[C@H]3[C@H]1C5 [morphine, reference compound]
paw withdrawal latency [1]: Elevations were significant when compared with saline

NGF: nerve growth factor, stimulant of calcium release
effect of NGF on intracellular calcium release (ITPR1 [2]): increased intracellular calcium release

ryanodine [reference compound]
5HT-induced cytoplasmic calcium release, effect of ryanodine ([3]; 10 nM ryanodine): nearly completely inhibited | 5HT-induced cytoplasmic calcium release, effect of ryanodine ([3]; dose-dependent, vs vehicle): significantly inhibited

Nc1ncnc2c1ncn2[C@@H]1O[C@H](COP(=O)(O)OP(=O)(O)OP(=O)(O)O)[C@@H](O)[C@H]1O [ATP, reference compound]
effect of ATP on cytosolic free calcium [4]: stimulated calcium release and an increase in cytosolic free calcium levels in a dose-dependent manner

NCCc1c[nH]c2ccc(O)cc12 [5HT, reference compound]
effect of 5HT on calcium release [3]: stimulates calcium release

NCCOB(c1ccccc1)c1ccccc1 [2-APB, reference compound]
NGF-induced intracellular calcium release (ITPR1 [5]): nearly completely inhibited
